Test results from article PMC2360206 (British Journal of Cancer, 2006).
Several values for one entry are separate records, joined by “and”; a condition that tells them apart may be missing. Equal entries are not always repeated. Where two headings read alike, the source gives them in different places.

Tests used:
plasma proteins = tested on: plasma proteins; design: method as in Vita et al, 2005; conditions: primarily albumin; ref Vita et al, 2005; cited from earlier work
malignant solid tumour = test: Antitumour activity in patients (RECIST); format: in vivo, human; conditions: for Patients with stable disease after course 2: progressed by course 4
Experimental: Before commencing treatment, a complete medical history was taken and physical examination was performed. The following pretreatment baseline examinations were performed within 4 weeks of starting treatment: full blood count, including white blood cell differential; reticulocyte count, haptoglobin, prothrombin time and Coombs test; serum biochemistry, including sodium, potassium, urea, creatinine, calcium, phosphorus, creatine kinase and isoenzymes, total protein, albumin, bilirubin (direct and total), alkaline phosphatase (ALP), alanine aminotransferase (ALT), aspartate aminotransferase (AST), γ-glutamyl transferase (γGT), lactate dehydrogenase and uric acid; urinalysis; pregnancy test, electrocardiogram and a chest X-ray. Weekly evaluations included history, physical examination, toxicity assessment according to the CTC criteria version 2.0 and full blood count and serum chemistries. Radiographic assessment of tumour was performed within 3 weeks before the patient starting treatment and after every two cycles, according to standard RECIST methodology. Patients were taken off protocol upon disease progression, unacceptable toxicity, investigator discretion, serious violation of protocol or at their own request, and were followed for 28 days after the last administration of the study drug.

[1] = tested on: Urinary retinol binding protein; test: Urinary retinol-binding protein, marker of renal tubular damage; format: in vivo, human; conditions: range 0.10–100.0
Experimental: (§1) In an attempt to understand further the pathogenesis of these biochemical toxicities, three patients were studied more intensively. Urinary retinol-binding protein (RBP), a marker of renal tubular damage was measured in conjunction with functional renal imaging (MAG3 renograms) to estimate renal blood flow pretreatment on days 3 and 14. […] This was associated with bilateral increases in renal parenchymal retention on day 3 on MAG3 scans, which reverted to normal by day 14 (see Figure 1). […] There were no consistent changes in urinary RBP in any of these patients (Table 3).

human tumour xenograft = tested on: human tumour xenograft; design: method as in Raynaud et al, 2005; conditions: 500 mg kg^−1 p.o. b.i.d., mouse; ref Raynaud et al, 2005; cited from earlier work
[2] = Phase I plasma pharmacokinetics in patients; format: in vivo, human; conditions: for Cmax / half-life / AUC(0-inf) / AUC(0-t) / Tmax: human, plasma
Experimental: For PK analysis, blood samples (approximately 8 ml each) were collected in tubes with lithium heparin anticoagulant at the following time points: pre-dose and 0.5, 1, 1.5, 2, 4, 8, 12 (pre-second dose), 13, 14 and 24 h (pre-dose if day 2) after dosing on both days 1 and 7 of the first cycle. The samples were then centrifuged at 3000 r.p.m at 4°C for 10 min, the plasma transferred to 2 ml cryovials and frozen at −70°C until analysis.
Pharmacokinetic (PK) analysis was performed using the trapezoidal method and log-linear regression. The following parameters were determined either by calculation or observation: the observed maximal concentration (Cmax), the time of observed maximal concentration (Tmax), the area under the concentration–time curve calculated by the trapezoidal rule (time 0 to last sample with a quantifiable concentration (AUC (0−tz)) and extrapolated to infinity (AUC(0−∞)), the terminal rate constant, by log-linear regression (λz) and the terminal half-life from λz. The value of AUC(0−∞) was considered unreliable if the terminal area beyond the last quantified sample was greater than 20% of the total AUC(0−∞). Pharmacokinetic (PK) data analysis was carried out using a noncompartmental analysis model with the aid of Kinetica (Innaphase Limited, Amersham, UK).

renal perfusion = test: MAG3 renogram functional renal imaging; format: in vivo, human; conditions: one of three patients, 800 mg b.i.d., day 3, reverted to normal by day 14
Experimental: as §1

[3] = design: method as in earlier work; conditions: exposure over a 24-h period, preclinical data, ref De la Motte and Gianella-Borradori, 2004, Whittaker et al, Tang et al, 2005; cited from earlier work
Cdk6 = conditions: background statement, no reference given; cited from earlier work
[4] = po, 100 mg, Day 1, 100 mg b.i.d. p.o. (n=3), mean, course 1
[5] = po, 100 mg, Day 1, 100 mg b.i.d. p.o. (n=3), median, course 1
[6] = po, 100 mg, Day 7, 100 mg b.i.d. p.o. (n=3), mean, course 1
[7] = po, 100 mg, Day 7, 100 mg b.i.d. p.o. (n=3), median, course 1
[8] = po, 200 mg, Day 1, 200 mg b.i.d. p.o. (n=6), mean, course 1
[9] = po, 200 mg, Day 1, 200 mg b.i.d. p.o. (n=6), median, course 1
[10] = po, 200 mg, Day 7, 200 mg b.i.d. p.o. (n=6), mean, course 1
[11] = po, 200 mg, Day 7, 200 mg b.i.d. p.o. (n=6), median, course 1
[12] = po, 800 mg, Day 1, 800 mg b.i.d. p.o. (n=12), mean, course 1
[13] = po, 800 mg, Day 1, 800 mg b.i.d. p.o. (n=12), median, course 1
[14] = po, 800 mg, Day 7, 800 mg b.i.d. p.o. (n=8), mean, course 1
[15] = po, 800 mg, Day 7, 800 mg b.i.d. p.o. (n=8), median, course 1

CC[C@H](CO)Nc1nc(NCc2ccccc2)c2ncn(C(C)C)c2n1 [Seliciclib]
Bound to plasma proteins (plasma proteins): 90%
Patients with stable disease after course 2 (malignant solid tumour; 100 mg b.i.d.): Two of three
Patients with stable disease after course 2 (malignant solid tumour; 200 mg b.i.d.): two of six
Patients with stable disease after course 2 (malignant solid tumour; 800 mg b.i.d.): three of 12
Objective tumour responses (malignant solid tumour; all dose levels): No objective tumour responses
Patients with disease stabilisation (malignant solid tumour; all dose levels, 21 treated patients): eight
Duration of disease stabilisation (malignant solid tumour; one patient with ovarian cancer, six courses): 18 weeks
Urinary retinol binding protein ([1]; Patient 20, Day 3, 800 mg b.i.d.): 59.2 mg/mol creatinine
Urinary retinol binding protein ([1]; Patient 20, Day 14, 800 mg b.i.d.): 20.8 mg/mol creatinine
Urinary retinol binding protein ([1]; Patient 21, Day 3, 800 mg b.i.d.): 44.7 mg/mol creatinine
Urinary retinol binding protein ([1]; Patient 21, Day 14, 800 mg b.i.d.): 25.7 mg/mol creatinine
Urinary retinol binding protein ([1]; Patient 22, Day 3, 800 mg b.i.d.): 7.9 mg/mol creatinine
Urinary retinol binding protein ([1]; Patient 22, Day 14, 800 mg b.i.d.): 40.1 mg/mol creatinine
Effect on growth of a human tumour xenograft (human tumour xenograft): significant growth delay
mean maximum plasma concentration ([2]; highest dose level (800 mg)): approximately 3 μg ml^−1
Cmax ([2]; oral, 800 mg, 800 mg dose level, read-out: mean Cmax): 3e+06 ng/mL and 10 µM
half-life ([2]; oral, similar in all dose groups, read-out: terminal (elimination) half-life): 2 to 5 h
AUC(0-inf) [2, 4]: 1920 ng·h/mL
AUC(0-t) [2, 4]: 1870 ng·h/mL
Cmax ([2]; po, 100 mg, Day 1, 100 mg b.i.d. p.o. (n=3), mean, course 1, read-out: Cmax): 248 ng/mL
Tmax ([2]; po, 100 mg, Day 1, 100 mg b.i.d. p.o. (n=3), mean, course 1, read-out: Tmax (converted)): 1.87 h
half-life ([2]; po, 100 mg, Day 1, 100 mg b.i.d. p.o. (n=3), mean, course 1, read-out: t1/2): 4.45 h
AUC(0-inf) [2, 5]: 1500 ng·h/mL
AUC(0-t) [2, 5]: 1370 ng·h/mL
Cmax ([2]; po, 100 mg, Day 1, 100 mg b.i.d. p.o. (n=3), median, course 1, read-out: Cmax): 134 ng/mL
Tmax ([2]; po, 100 mg, Day 1, 100 mg b.i.d. p.o. (n=3), median, course 1, read-out: Tmax (converted)): 1.02 h
half-life ([2]; po, 100 mg, Day 1, 100 mg b.i.d. p.o. (n=3), median, course 1, read-out: t1/2): 4.63 h
AUC(0-inf) [2, 6]: 2890 ng·h/mL
AUC(0-t) [2, 6]: 2860 ng·h/mL
Cmax ([2]; po, 100 mg, Day 7, 100 mg b.i.d. p.o. (n=3), mean, course 1, read-out: Cmax): 162 ng/mL
Tmax ([2]; po, 100 mg, Day 7, 100 mg b.i.d. p.o. (n=3), mean, course 1, read-out: Tmax (converted)): 3.17 h
half-life ([2]; po, 100 mg, Day 7, 100 mg b.i.d. p.o. (n=3), mean, course 1, read-out: t1/2): 4.47 h
AUC(0-inf) [2, 7]: 3040 ng·h/mL
AUC(0-t) [2, 7]: 3030 ng·h/mL
Cmax ([2]; po, 100 mg, Day 7, 100 mg b.i.d. p.o. (n=3), median, course 1, read-out: Cmax): 152 ng/mL
Tmax ([2]; po, 100 mg, Day 7, 100 mg b.i.d. p.o. (n=3), median, course 1, read-out: Tmax (converted)): 4 h
half-life ([2]; po, 100 mg, Day 7, 100 mg b.i.d. p.o. (n=3), median, course 1, read-out: t1/2): 3.9 h
AUC(0-inf) [2, 8]: 3030 ng·h/mL
AUC(0-t) [2, 8]: 2770 ng·h/mL
Cmax ([2]; po, 200 mg, Day 1, 200 mg b.i.d. p.o. (n=6), mean, course 1, read-out: Cmax): 179 ng/mL
Tmax ([2]; po, 200 mg, Day 1, 200 mg b.i.d. p.o. (n=6), mean, course 1, read-out: Tmax (converted)): 4.65 h
half-life ([2]; po, 200 mg, Day 1, 200 mg b.i.d. p.o. (n=6), mean, course 1, read-out: t1/2): 2.93 h
AUC(0-inf) [2, 9]: 3840 ng·h/mL
AUC(0-t) [2, 9]: 3080 ng·h/mL
Cmax ([2]; po, 200 mg, Day 1, 200 mg b.i.d. p.o. (n=6), median, course 1, read-out: Cmax): 80 ng/mL
Tmax ([2]; po, 200 mg, Day 1, 200 mg b.i.d. p.o. (n=6), median, course 1, read-out: Tmax (converted)): 2.78 h
half-life ([2]; po, 200 mg, Day 1, 200 mg b.i.d. p.o. (n=6), median, course 1, read-out: t1/2): 2.48 h
AUC(0-inf) [2, 10]: 4250 ng·h/mL
AUC(0-t) [2, 10]: 2930 ng·h/mL
Cmax ([2]; po, 200 mg, Day 7, 200 mg b.i.d. p.o. (n=6), mean, course 1, read-out: Cmax): 310 ng/mL
Tmax ([2]; po, 200 mg, Day 7, 200 mg b.i.d. p.o. (n=6), mean, course 1, read-out: Tmax (converted)): 1.03 h
half-life ([2]; po, 200 mg, Day 7, 200 mg b.i.d. p.o. (n=6), mean, course 1, read-out: t1/2): 13 h
AUC(0-inf) [2, 11]: 3480 ng·h/mL
AUC(0-t) [2, 11]: 3080 ng·h/mL
Cmax ([2]; po, 200 mg, Day 7, 200 mg b.i.d. p.o. (n=6), median, course 1, read-out: Cmax): 303 ng/mL
Tmax ([2]; po, 200 mg, Day 7, 200 mg b.i.d. p.o. (n=6), median, course 1, read-out: Tmax (converted)): 1 h
half-life ([2]; po, 200 mg, Day 7, 200 mg b.i.d. p.o. (n=6), median, course 1, read-out: t1/2): 3.8 h
AUC(0-inf) [2, 12]: 53000 ng·h/mL
AUC(0-t) [2, 12]: 52700 ng·h/mL
Cmax ([2]; po, 800 mg, Day 1, 800 mg b.i.d. p.o. (n=12), mean, course 1, read-out: Cmax): 3200 ng/mL
Tmax ([2]; po, 800 mg, Day 1, 800 mg b.i.d. p.o. (n=12), mean, course 1, read-out: Tmax (converted)): 2.95 h
half-life ([2]; po, 800 mg, Day 1, 800 mg b.i.d. p.o. (n=12), mean, course 1, read-out: t1/2): 3.65 h
AUC(0-inf) [2, 13]: 57500 ng·h/mL
AUC(0-t) [2, 13]: 57400 ng·h/mL
Cmax ([2]; po, 800 mg, Day 1, 800 mg b.i.d. p.o. (n=12), median, course 1, read-out: Cmax): 3160 ng/mL
Tmax ([2]; po, 800 mg, Day 1, 800 mg b.i.d. p.o. (n=12), median, course 1, read-out: Tmax (converted)): 2 h
half-life ([2]; po, 800 mg, Day 1, 800 mg b.i.d. p.o. (n=12), median, course 1, read-out: t1/2): 3.87 h
AUC(0-inf) [2, 14]: 26600 ng·h/mL
AUC(0-t) [2, 14]: 26500 ng·h/mL
Cmax ([2]; po, 800 mg, Day 7, 800 mg b.i.d. p.o. (n=8), mean, course 1, read-out: Cmax): 2770 ng/mL
Tmax ([2]; po, 800 mg, Day 7, 800 mg b.i.d. p.o. (n=8), mean, course 1, read-out: Tmax (converted)): 1.65 h
half-life ([2]; po, 800 mg, Day 7, 800 mg b.i.d. p.o. (n=8), mean, course 1, read-out: t1/2): 3.83 h
AUC(0-inf) [2, 15]: 21300 ng·h/mL
AUC(0-t) [2, 15]: 21300 ng·h/mL
Cmax ([2]; po, 800 mg, Day 7, 800 mg b.i.d. p.o. (n=8), median, course 1, read-out: Cmax): 2640 ng/mL
Tmax ([2]; po, 800 mg, Day 7, 800 mg b.i.d. p.o. (n=8), median, course 1, read-out: Tmax (converted)): 1.78 h
half-life ([2]; po, 800 mg, Day 7, 800 mg b.i.d. p.o. (n=8), median, course 1, read-out: t1/2): 3.48 h
Tmax ([2]; po, all dose levels, oral, read-out: Tmax range (time to peak plasma concentrations)): 1 to 4 h
Tmax ([2]; po, all dose levels, oral, read-out: mean Tmax): 2.55 h
plasma clearance ([2]; patients, oral): greater than liver blood flow
Renal perfusion by MAG3 perfusion indices (renal perfusion): reduction in renal perfusion bilaterally
concentration range achieving clinically relevant biological effects [3]: 7.9–30.2 μM
Inhibition of Cdk6 (Cdk6): only a weak inhibitor
